Test results reported in ChEMBL document CHEMBL1132402, “Conformations of trypsin-bound amidine inhibitors of blood coagulant factor Xa by double REDOR NMR and MD simulations” (J Med Chem, 1999).

How the values were obtained:
Serine protease 1 = molecular target: T1, Serine protease 1 (Bos taurus, UniProt P00760); test: Inhibitory constant against trypsin
T1 sequence (P00760 whole entry): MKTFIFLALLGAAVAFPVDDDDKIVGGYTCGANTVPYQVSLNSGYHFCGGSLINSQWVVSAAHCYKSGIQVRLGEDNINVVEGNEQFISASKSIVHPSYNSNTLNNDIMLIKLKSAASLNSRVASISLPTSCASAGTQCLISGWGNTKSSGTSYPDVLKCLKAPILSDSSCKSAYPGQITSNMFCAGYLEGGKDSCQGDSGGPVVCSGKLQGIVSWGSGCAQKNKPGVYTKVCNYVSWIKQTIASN

Coagulation factor X = Coagulation factor X (Homo sapiens, UniProt P00742); test: Inhibitory constant against Coagulation factor Xa (factor Xa); set-up: species or system Bos taurus
Sequence of Coagulation factor X (P00742 41-179 limits assumed): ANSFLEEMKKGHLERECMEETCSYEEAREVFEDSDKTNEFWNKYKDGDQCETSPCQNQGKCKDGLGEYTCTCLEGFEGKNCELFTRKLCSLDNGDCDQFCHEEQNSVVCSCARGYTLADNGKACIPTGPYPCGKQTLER
Sequence of Coagulation factor X (P00742 235-488 limits assumed): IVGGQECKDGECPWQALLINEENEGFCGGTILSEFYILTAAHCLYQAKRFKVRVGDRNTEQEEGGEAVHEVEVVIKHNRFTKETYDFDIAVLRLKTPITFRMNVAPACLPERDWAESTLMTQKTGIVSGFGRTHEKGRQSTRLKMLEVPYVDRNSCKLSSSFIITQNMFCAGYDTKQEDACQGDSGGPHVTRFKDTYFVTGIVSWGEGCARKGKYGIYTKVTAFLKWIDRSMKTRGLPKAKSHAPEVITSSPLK

Ki (Serine protease 1) [nM] | Ki (Coagulation factor X) [nM] | Structure (SMILES)
740 | 12 | Cc1c(F)c(Oc2cccc(C(=N)N)c2)cc(Oc2cccc(C(=N)N)c2)c1F
2900 | 1400 | Cc1c(F)c(Oc2cccc(CN)c2)cc(Oc2cccc(C(=N)N)c2)c1F
